Entries after “also recorded” stand apart in the source; their conditions may differ.
Tests used:
[1] = test system: human promyelocytic HL-60 cells; test: HL-60 differentiation (NBT reduction); format: cell-based; conditions: for HL-60 differentiation ED50 Ratio: average ratio of the 1α,25-(OH)2D3 ED50 to the ED50 for the analogue, 50% maturation, NBT reduction; for ability to elicit differentiation of HL-60 cells into monocytes (in words): comparator (2MD)
[2] = test system: 24-hydroxylase (CYP-24) promoter; test: 24-hydroxylase transcription (luciferase reporter in rat osteosarcoma cells); format: cell-based; conditions: for 24OHase transcription ED50 Ratio: average ratio of the 1α,25-(OH)2D3 ED50 to the ED50 for the analogue, luciferase activity; for transcriptional potency (in words): compared with 1α,25-(OH)2D3 (1)
Excerpt: The activity of the synthesized vitamins in inducing transcription of vitamin D target gene was examined using the 24-hydroxylase (CYP-24) promoter.

[3] = earlier work; cited from earlier work
[4] = biological target: T1, full-length recombinant rat vitamin D receptor (Rattus norvegicus, UniProt P13053); test: Competitive binding to the vitamin D receptor; conditions: for VDR Binding Ki Ratio: average ratio of the 1α,25-(OH)2D3 Ki to the Ki for the analogue, radiolabeled 1α,25-(OH)2D3 at 1 nM, Kd 0.2 nM; for VDR binding ability (in words): comparator (1 or 3)
T1 sequence (P13053 1-423): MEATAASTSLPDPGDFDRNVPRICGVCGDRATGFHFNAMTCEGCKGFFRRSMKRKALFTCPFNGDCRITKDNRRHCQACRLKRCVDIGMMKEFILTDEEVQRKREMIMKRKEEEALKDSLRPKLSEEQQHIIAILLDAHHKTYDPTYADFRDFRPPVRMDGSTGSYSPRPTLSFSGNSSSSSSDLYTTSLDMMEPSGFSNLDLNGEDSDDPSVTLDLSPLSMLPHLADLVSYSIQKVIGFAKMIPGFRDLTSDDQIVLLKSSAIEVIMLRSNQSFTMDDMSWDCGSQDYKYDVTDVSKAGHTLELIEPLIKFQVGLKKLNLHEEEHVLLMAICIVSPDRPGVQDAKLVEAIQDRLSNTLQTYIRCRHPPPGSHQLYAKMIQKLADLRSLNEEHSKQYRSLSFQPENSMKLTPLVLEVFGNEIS
Protocol: In the first competitive binding assay, the affinity of vitamins to the full-length recombinant rat receptor was evaluated and compared to 1α,25-(OH)2D3 (1) and 2MD (3).
The Ki values are derived from the dose-response curves and represent the inhibition constant when radiolabeled 1α,25-(OH)2D3 is present at 1 nM and a Kd of 0.2 nM is used. The numbers shown in the Table are expressed as the average ratio of the 1α,25-(OH)2D3 Ki to the Ki for the analogue. ^bInduction of differentiation of HL-60 promyelocytes to monocytes by 1α,25-(OH)2D3 (1) and the synthesized vitamin D analogues. Differentiation state was determined by measuring the percentage of cells reducing nitro blue tetrazolium (NBT). The experiment was repeated in duplicate two times. […] The numbers shown in the Table are expressed as the average ratio of the 1α,25-(OH)2D3 ED50 to the ED50 for the analogue. ^cTranscriptional assay in rat osteosarcoma cells stably transfected with a 24-hydroxylase gene reporter plasmid. […] The numbers shown in the Table are expressed as the average ratio of the 1α,25-(OH)2D3 ED50 to the ED50 for the analogue.

[5] = compared with 1; cited from earlier work
[6] = cited from earlier work
bone formation = conditions: cited from earlier work
[7] = ovariectomized (OVX) rat; cited from earlier work
[8] = clinical trial; cited from earlier work
[9] = Bone calcium mobilization (serum calcium); format: in vivo, rat; conditions: rats, four consecutive intraperitoneal doses
Protocol: (§1) Male, weanling Sprague-Dawley rats were purchased from Harlan (Indianapolis, Ind.). The animals were group housed and placed on Diet 11 (0.47% Ca)+AEK oil for one week followed by Diet 11 (0.02% Ca)+AEK oil for 3 weeks. The rats were then switched to a diet containing 0.47% Ca^xxiii for one week followed by two weeks on a diet containing 0.02% Ca. Dose administration began during the last week on 0.02% Ca diet. Four consecutive intraperitoneal doses were given approximately 24 hours apart. Twenty four hours after the last dose, blood was collected from the severed neck and the concentration of serum calcium determined as a measure of bone calcium mobilization. The first 10 cm of the intestine was also collected for the intestinal calcium transport analysis using the everted gut sac method.^25

[10] = Intestinal calcium transport (everted gut sac); format: in vivo, rat; conditions: rats, four consecutive intraperitoneal doses
Protocol: as §1

[11] = listed as 2-methylene calcitriol

Structure (SMILES)	HL-60 differentiation ED50 Ratio [1]	24OHase transcription ED50 Ratio [2]	calcemic potency / in vivo calcemic activity [3]	VDR Binding Ki Ratio [4]	activity in the bone tissue higher than 1 [5]	activity in the intestine compared with 1 [6]	bone formation in vitro (bone formation)	bone formation in OVX rat model [7]	bone turnover in postmenopausal women [8]	transcriptional potency (in words) [2]	bone calcium mobilization / potency in raising serum calcium (in words) [9]	bone calcium mobilization / potency in raising serum calcium (in words) [9, 11]	intestinal calcium transport activity (in words) [10]	intestinal calcium transport activity (in words) [10, 11]	VDR binding ability (in words) [4]	ability to elicit differentiation of HL-60 cells into monocytes (in words) [1]	transcriptional activity decreased compared with 3 (2MD) ([2]; compared with 3)	affinity to the receptor, higher than natural hormone 1 ([4]; compared to 1α,25-(OH)2D3 (1)) [fold]
C=C1[C@H](O)CC(=C/C=C2\CCC[C@]3(C)[C@@H]([C@H](C)CCCC(C)(C)O)CC[C@@H]23)C[C@H]1O [Compound 2, reference compound]	1	1	significantly increased calcemic potency	1														
C=C1[C@H](O)CC(=C/C=C2\CCC[C@]3(C)[C@@H](C(C)CCCC(C)(C)O)CC[C@@H]23)C[C@H]1O (stereo partly drawn) [Compound 3, (20S)-1α,25-dihydroxy-2-methylene-19-nor vitamin D3]	25	29		1	ca. 30 times	similar	strongly stimulate bone formation	strongly stimulate bone formation	increase bone turnover									
C=C1/C(=C\C=C2/CCC[C@]3(C)[C@@H]([C@H](C)CCCC(C)(C)O)CC[C@@H]23)C[C@@H](O)C(=C)[C@@H]1O [Compound 8, 1α,25-dihydroxy-2-methylene-vitamin D3]	0.7	1		1.4						same transcriptional potency as 1α,25-(OH)2D3 (1)	highest potency in raising serum calcium; also recorded: considerably higher potency	almost as active as 2MD in the bone	Much higher potency on intestine; also recorded: considerably higher potency; also recorded: more potent than 1 and 3	more active in intestine	almost as effectively as the natural hormone 1			
C=C1/C(=C\C=C2/CCC[C@]3(C)[C@@H]([C@@H](C)CCCC(C)(C)O)CC[C@@H]23)C[C@@H](O)C(=C)[C@@H]1O [Compound 9, (20S)-1α,25-dihydroxy-2-methylene-vitamin D3]	29	10		1.1						most pronounced activity	highest potency in raising serum calcium; also recorded: slightly lower than that of 3; also recorded: ca. one order of magnitude higher compared to calcitriol		Much higher potency on intestine; also recorded: more potent than 1 and 3		almost identical	highest ability to elicit cellular differentiation; also recorded: almost identical	three	
C=C1/C(=C\C=C2/CCC[C@]3(C)[C@@H]([C@H](C)CCCC(C)C)CC[C@@H]23)C[C@@H](O)C(=C)[C@@H]1O [Compound 10, 1α-hydroxy-2-methylene-vitamin D3]	0.07									decreased by one order of magnitude	less active but still more calcemic than calcitriol; also recorded: Strong calcemic activity				decreased by two orders of magnitude			
C=C1/C(=C\C=C2/CCC[C@]3(C)[C@@H]([C@@H](C)CCCC(C)C)CC[C@@H]23)C[C@@H](O)C(=C)[C@@H]1O [Compound 11, (20S)-1α-hydroxy-2-methylene-vitamin D3]	0.7									decreased by one order of magnitude	less active but still more calcemic than calcitriol; also recorded: Strong calcemic activity				decreased by two orders of magnitude			
C=C1/C(=C/C=C2\CCC[C@]3(C)[C@@H]([C@H](C)CCCC(C)(C)O)CC[C@@H]23)C[C@@H](O)C(=C)[C@@H]1O [Compound 12, (5E)-1α,25-dihydroxy-2-methylene-vitamin D3]	0.4	1		2.5						same transcriptional potency as 1α,25-(OH)2D3 (1)	significantly decreased activity in bone							2.5
C=C1/C(=C/C=C2\CCC[C@]3(C)[C@@H]([C@@H](C)CCCC(C)(C)O)CC[C@@H]23)C[C@@H](O)C(=C)[C@@H]1O [Compound 13, (5E,20S)-1α,25-dihydroxy-2-methylene-vitamin D3]	20	5		1.1						most pronounced activity	significantly decreased activity in bone				almost identical	highest ability to elicit cellular differentiation; also recorded: almost identical		
